Reference: the supplement of paper PMC9663587

Experiments:
Test in all cases: GRmax, 72 h; higher = less effect;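 note: breast cell lines in 384-well plates, nine doses across a 10^4 range, Dye Drop imaging of viable cells vs DMSO and time-zero plates, GR 0 means no net growth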
HCC70 = tested on: HCC70
CAL851 = tested on: CAL851
HCC1569 = tested on: HCC1569
HCC1143 = tested on: HCC1143
MDAMB453 = tested on: MDAMB453
MDAMB231 = tested on: MDAMB231
CAL51 = tested on: CAL51
BT20 = tested on: BT20
MDAMB415 = tested on: MDAMB415
ZR7530 = tested on: ZR7530
HCC38 = tested on: HCC38
UACC893 = tested on: UACC893

Row | SMILES | GRmax, 72 h (HCC70) | GRmax, 72 h (CAL851) | GRmax, 72 h (HCC1569) | GRmax, 72 h (HCC1143) | GRmax, 72 h (MDAMB453) | GRmax, 72 h (MDAMB231) | GRmax, 72 h (CAL51) | GRmax, 72 h (BT20) | GRmax, 72 h (MDAMB415) | GRmax, 72 h (ZR7530) | GRmax, 72 h (HCC38) | GRmax, 72 h (UACC893) | GRmax, 72 h (HCC70; main component drawn) | GRmax, 72 h (CAL851; main component drawn) | GRmax, 72 h (HCC1143; main component drawn) | GRmax, 72 h (MDAMB453; main component drawn) | GRmax, 72 h (MDAMB231; main component drawn) | GRmax, 72 h (CAL51; main component drawn) | GRmax, 72 h (BT20; main component drawn) | GRmax, 72 h (HCC38; main component drawn)
1 | C[C@@H]1COCCN1c1cc(C2([S@](C)(=N)=O)CC2)nc(-c2cc[nH]c3nccc2-3)n1 [AZD6738] (max 10 µM) | -0.532 GR | 0.144 GR | -0.0623 GR | -0.0627 GR | -0.162 GR | 0.354 GR | 0.0335 GR | 0.187 GR | 0.522 GR | 0.61 GR | -0.271 GR | 0.429 GR |  |  |  |  |  |  |  | 
2 | NC(=O)Nc1cc(-c2cccc(F)c2)sc1C(=O)N[C@H]1CCCNC1 [AZD7762] (max 10 µM) | -0.7 GR | -0.322 GR | -0.411 GR | -0.369 GR | -0.216 GR | -0.463 GR | -0.519 GR | -0.578 GR | -0.481 GR | 0.0949 GR | -0.334 GR | -0.308 GR |  |  |  |  |  |  |  | 
3 | Cc1nc(NC(=O)N2CCC[C@H]2C(N)=O)sc1-c1ccnc(C(C)(C)C(F)(F)F)c1 [Alpelisib/BYL719] (max 10 µM) | 0.0981 GR | 0.293 GR | 0.369 GR | 0.48 GR | -0.307 GR | 0.69 GR | 0.344 GR | -0.118 GR | 0.613 GR | -0.0068 GR | 0.68 GR | -0.757 GR |  |  |  |  |  |  |  | 
4 | CN(C)C/C=C/C(=O)Nc1ccc(O[C@@H]2CCC[C@@H](Nc3ncc(Cl)c(-c4c[nH]c5ccccc45)n3)C2)cc1 [BSJ-01-175] (max 10 µM) | -0.884 GR | -0.535 GR | -0.762 GR | -0.449 GR | -0.723 GR | -0.562 GR | -0.368 GR | -0.669 GR | -0.491 GR | -0.943 GR | -0.564 GR | -0.904 GR |  |  |  |  |  |  |  | 
5 | CC(=O)c1c(C)c2cnc(Nc3ccc(N4CCN(CCOCCOCCOCCNC(=O)COc5cccc6c5C(=O)N(C5CCC(=O)NC5=O)C6=O)CC4)cn3)nc2n(C2CCCC2)c1=O (stereo not drawn) [BSJ-03-123] (max 10 µM) | -0.513 GR | -0.208 GR | -0.03 GR | -0.0159 GR | -0.022 GR | -0.181 GR | 0.146 GR | -0.005 GR | 0.149 GR | -0.258 GR | -0.0999 GR | 0.289 GR |  |  |  |  |  |  |  | 
6 | CC(C)Nc1cc(-c2c[nH]c(C(=O)N[C@H](CO)c3cccc(Cl)c3)c2)c(Cl)cn1 [BVD523] (max 10 µM) | 0.461 GR | 0.274 GR | 0.568 GR | 0.0829 GR | 0.387 GR | 0.213 GR | 0.759 GR | 0.463 GR | 0.533 GR | 0.562 GR | 0.371 GR | 0.274 GR |  |  |  |  |  |  |  | 
7 | Cc1c(N)nc([C@H](CC(N)=O)NC[C@H](N)C(N)=O)nc1C(=O)N[C@H](C(=O)N[C@H](C)[C@@H](O)[C@H](C)C(=O)N[C@H](C(=O)NCCc1nc(-c2nc(C(=O)NCCC[S+](C)C)cs2)cs1)[C@@H](C)O)[C@@H](OC1OC(CO)C(O)C(O)C1OC1OC(CO)C(O)C(OC(N)=O)C1O)c1cnc[nH]1 (stereo partly drawn) [Bleomycin] (max 10 µM) |  |  |  |  |  |  |  |  |  |  |  |  | -0.115 GR | -0.107 GR | -0.208 GR | 0.0154 GR | 0.436 GR | -0.134 GR | -0.129 GR | -0.232 GR
8 | Nc1cc(C(F)(F)F)c(-c2cc(N3CCOCC3)nc(N3CCOCC3)n2)cn1 [Buparlisib/NVP-BKM120] (max 10 µM) | -0.727 GR | -0.32 GR | -0.163 GR | -0.436 GR | -0.607 GR | -0.235 GR | -0.388 GR | -0.551 GR | -0.515 GR | -0.408 GR | -0.276 GR | -0.833 GR |  |  |  |  |  |  |  | 
9 | COc1cc2nccc(Oc3ccc(NC(=O)C4(C(=O)Nc5ccc(F)cc5)CC4)cc3)c2cc1OC [Cabozantinib] (max 10 µM) | -0.0911 GR | 0.173 GR | 0.723 GR | 0.512 GR | 0.465 GR | 0.0749 GR | 0.306 GR | -0.203 GR | 0.412 GR | 0.449 GR | 0.301 GR | 0.735 GR |  |  |  |  |  |  |  | 
10 | COc1cc2c(Oc3ccc4[nH]c(C)cc4c3F)ncnc2cc1OCCCN1CCCC1 [Cediranib/AZD2171] (max 10 µM) | -0.326 GR | -0.238 GR | 0.875 GR | 0.0093 GR | -0.689 GR | -0.362 GR | -0.103 GR | 0.221 GR | -0.208 GR | -0.145 GR | -0.204 GR | -0.458 GR |  |  |  |  |  |  |  | 
11 | Cc1cc(Nc2ncc(Cl)c(Nc3ccccc3S(=O)(=O)C(C)C)n2)c(OC(C)C)cc1C1CCNCC1 [Ceritinib/LDK378] (max 10 µM) | -0.881 GR | -0.596 GR | -0.83 GR | -0.422 GR | -0.687 GR | -0.333 GR | -0.476 GR | -0.737 GR | -0.975 GR | 0.416 GR | -0.404 GR | 0.807 GR |  |  |  |  |  |  |  | 
12 | N.N.[Cl][Pt][Cl] [Cisplatin] (max 10 µM) | -0.683 GR | 0.018 GR |  | 0.0754 GR | 0.133 GR | 0.272 GR | -0.0329 GR | -0.337 GR |  |  | -0.103 GR |  |  |  |  |  |  |  |  | 
13 | Cc1nc(Nc2ncc(C(=O)Nc3c(C)cccc3Cl)s2)cc(N2CCN(CCO)CC2)n1 [Dasatinib] (max 10 µM) | -0.579 GR | -0.244 GR | -0.059 GR | 0.257 GR | 0.549 GR | -0.126 GR | 0.0983 GR | 0.283 GR | 0.342 GR | -0.0607 GR | 0.332 GR | 0.706 GR |  |  |  |  |  |  |  | 
14 | COc1cccc2c1C(=O)c1c(O)c3c(c(O)c1C2=O)C[C@@](O)(C(=O)CO)C[C@@H]3O[C@H]1C[C@H](N)[C@H](O)[C@H](C)O1 [Doxorubicin] (max 3.162 µM) | -0.779 GR | -0.378 GR | -0.132 GR | -0.251 GR | -0.348 GR | -0.486 GR | -0.48 GR | -0.481 GR | -0.423 GR | -0.274 GR | -0.406 GR | -0.405 GR |  |  |  |  |  |  |  | 
15 | COc1cc([C@@H]2c3cc4c(cc3[C@@H](O[C@@H]3O[C@@H]5CO[C@@H](C)O[C@H]5[C@H](O)[C@H]3O)[C@H]3COC(=O)[C@H]23)OCO4)cc(OC)c1O [Etoposide] (max 10 µM) | -0.152 GR | -0.241 GR |  | -0.166 GR | -0.0601 GR | 0.12 GR | -0.21 GR | -0.383 GR |  |  | -0.424 GR |  |  |  |  |  |  |  |  | 
16 | CO[C@H]1C[C@@H]2CC[C@@H](C)[C@@](O)(O2)C(=O)C(=O)N2CCCC[C@H]2C(=O)O[C@H]([C@H](C)C[C@@H]2CC[C@@H](OCCO)[C@H](OC)C2)CC(=O)[C@H](C)/C=C(\C)[C@@H](O)[C@@H](OC)C(=O)[C@H](C)C[C@H](C)/C=C/C=C/C=C/1C [Everolimus] (max 10 µM) | 0.373 GR | 0.371 GR | 0.555 GR | 0.557 GR | 0.0309 GR | 0.711 GR | 0.548 GR | 0.39 GR | 0.0852 GR | 0.169 GR | 0.473 GR | 0.159 GR |  |  |  |  |  |  |  | 
17 | CC[C@@]1(O)C(=O)OCc2c1cc1n(c2=O)Cc2cc3c(CN(C)C)c(O)ccc3nc2-1 [Topotecan] (max 10 µM) | -0.861 GR | -0.296 GR |  | -0.43 GR | -0.529 GR | -0.324 GR | -0.53 GR | -0.641 GR |  |  | -0.504 GR |  |  |  |  |  |  |  |  | 
